We go through 51 compounds from patent publication US9139532B2, “Pyrazolyl guanidine F1F0-atpase inhibitors and therapeutic uses thereof” (Lycera Corporation, priority 2010, dated 2015).

Assay [1] concerns the target T1, F1F0-ATPase (Bos taurus, UniProt P13621).
T1 construct: from tissue
Kind of assay: Inhibition of F1F0-ATPase activity in synthesizing ATP. The following applies: inhibition of ATP synthesis by F1F0-ATPase; read-out: ATP Syn IC50. Format: biochemical.

For assay [2], the system named is Ramos cells. Kind of assay: Cytotoxicity in Ramos cells. Type of assay: cell-based. The note with it: cytotoxicity in Ramos cells, read-out: Ramos Cell EC50.

Like-named read-outs stand apart in the source and are kept apart here. Where only a bound is given, the exact number is not on record here.

For the compound `CC(C)(C)N/C(=N/C(=O)c1cccnc1C(F)(F)F)Nc1cc(-c2ccc(F)cc2)[nH]n1` [Compound A-167], in assay [1], the IC50 is less than 10 µM. The EC50 in assay [2] is less than 10 µM.
Consider `CC(C)OCCCNC(=NC(=O)c1ccc(F)c(F)c1)Nc1cc(-c2cc(F)cc(Cl)c2)n[nH]1` [Compound A-283], for which the IC50 in assay [1] was less than 10 µM. Besides, in assay [2] (Homo sapiens), the EC50 is less than 10 µM.
In the case of `O=C(/N=C(\Nc1cc(C(F)(F)F)[nH]n1)NC(C1CC1)C1CC1)c1ccc(Cl)cc1` [Compound A-7], the IC50 in assay [1] is less than 10 µM. The EC50 in assay [2] (Homo sapiens) is less than 10 µM.
`O=C(/N=C(/NCc1ccc(Cl)c(F)c1)Nc1cc(C(F)(F)F)[nH]n1)c1ccc(Cl)cc1` [Compound A-32]: the IC50 in assay [1] is less than 10 µM. Besides, the EC50 in assay [2] (Homo sapiens) was less than 10 µM.
For the compound `O=C(/N=C(/Nc1cc(F)cc(Cl)c1)Nc1cc(C2CCC2)[nH]n1)c1ccc(Cl)c(F)c1` [Compound A-147], the IC50 in assay [1] is less than 10 µM. Also, the EC50 in assay [2] was less than 10 µM.
Turning to `CC(C)CN/C(=N/C(=O)c1cccc([S+](C)[O-])c1)Nc1cc(-c2ccc(F)cc2)n[nH]1` (stereo not drawn) [Compound A-566, (Z)—N-(((3-(4-Fluorophenyl)-1H-pyrazol-5-yl)amino)(isobutylamino)methylene)-3-(methylsulfinyl)benzamide], in assay [1], the IC50 is less than 10 µM. Also, the EC50 in assay [2] (Homo sapiens) is less than 10 µM.
For `CC(C)(C)N/C(=N/C(=O)c1ccc(C(F)(F)F)cc1)Nc1cc(-c2ccc(Cl)cc2)[nH]n1` [Compound A-138], the IC50 in assay [1] is less than 10 µM. The EC50 in assay [2] was less than 10 µM.
As for `CC(C)C(C)N/C(=N/C(=O)c1cccc(C#N)c1)Nc1cc(-c2ccc(Cl)cc2)n[nH]1` (stereo not drawn) [Compound A-304], the IC50 in assay [1] is less than 10 µM. In assay [2], the EC50 was less than 10 µM.
On to `COC[C@H](C)N/C(=N/C(=O)c1ccnc(OC)c1)Nc1cc(-c2ccc(F)cc2)n[nH]1` [Compound A-495], for which, in assay [1], the IC50 is less than 10 µM. The EC50 in assay [2] was less than 10 µM.
As to `O=C(N=C(Nc1cc(-c2cc(F)cc(F)c2)n[nH]1)NC1CCC1)c1ccc(C(F)(F)F)cc1` [Compound A-298], the IC50 in assay [1] is less than 10 µM. For the same compound, the EC50 in assay [2] (Homo sapiens) is less than 10 µM.
In the case of `COC[C@H](C)N/C(=N/C(=O)c1ccc(O)cc1)Nc1cc(-c2ccc(F)cc2)n[nH]1` [Compound A-492], the IC50 in assay [1] was less than 10 µM. For the same compound, the EC50 in assay [2] is less than 10 µM.
On to `CN(/C(=N\C(=O)c1ccc(F)c(F)c1)NC(C)(C)C)c1cc(C(F)(F)F)[nH]n1` [Compound A-44], for which the IC50 in assay [1] was greater than 10 µM. Moreover, in assay [2] (Homo sapiens), the EC50 was greater than 10 µM.
Take `O=C(N=C(NCC1CCO1)Nc1cc(-c2ccc(Cl)cc2)n[nH]1)c1ccc(F)c(F)c1` (stereo not drawn) [Compound A-223]: the IC50 in assay [1] was less than 10 µM. Further, in assay [2] (Homo sapiens), the EC50 is less than 10 µM.
`CC(C)CN/C(=N/C(=O)c1cccc(F)c1)Nc1cc(-c2cc(F)cc(F)c2)n[nH]1` [Compound A-368]: the IC50 in assay [1] was less than 10 µM. Moreover, in assay [2], the EC50 was less than 10 µM.
With `CCC(C)(C)N/C(=N/C(=O)c1ccc(C(F)(F)F)cc1)Nc1cc(C(F)(F)F)n[nH]1` [Compound A-93], the IC50 in assay [1] was less than 10 µM. Moreover, the EC50 in assay [2] (Homo sapiens) is less than 10 µM.
`CC(C)(C)N/C(=N/C(=O)c1cccc(F)c1)Nc1cc(-c2cccc(Cl)c2)n[nH]1` [Compound A-438]: the IC50 in assay [1] was less than 10 µM. In addition, in assay [2], the EC50 is less than 10 µM.
On to `Cc1ccc(-c2cc(N/C(=N\C(=O)c3ccc(F)c(F)c3)Nc3cc(F)cc(Cl)c3)n[nH]2)cc1F` [Compound A-126], for which, in assay [1], the IC50 was greater than 10 µM. Also, the EC50 in assay [2] is greater than 10 µM.
On to `COCC(C)NC(=NC(=O)c1ccc(F)cc1)Nc1cc(-c2ccc(Cl)cc2)n[nH]1` (stereo not drawn) [Compound A-276], for which the IC50 in assay [1] was less than 10 µM. The EC50 in assay [2] is less than 10 µM.
With `CC(C)N/C(=N/C(=O)c1cccc(F)c1)Nc1cc(-c2ccc(F)cc2)n[nH]1` [Compound A-390], in assay [1], the IC50 was less than 10 µM. For the same compound, in assay [2], the EC50 was greater than 10 µM.
The like results for `COc1ccc(-c2cc(N/C(=N\C(=O)c3ccc(Cl)c(F)c3)NCc3ccc(F)cc3Cl)[nH]n2)cc1` [Compound A-471] were, in that order, less than 10 µM and greater than 10 µM.
Regarding `O=C(/N=C(\Nc1cc(-c2cc(F)cc(Cl)c2)n[nH]1)NC1CCCC1)c1ccc(F)c(F)c1` [Compound A-289], the IC50 in assay [1] was less than 10 µM. Also, in assay [2], the EC50 was less than 10 µM.
For `O=C(/N=C(\Nc1cc(C(F)(F)F)[nH]n1)NC1CCC(F)(F)CC1)c1ccc(C(F)(F)F)cc1` [Compound A-561], the IC50 in assay [1] is less than 10 µM. In addition, the EC50 in assay [2] is less than 10 µM.
Regarding `O=C(N=C(Nc1cc(-c2ccc(F)cc2)n[nH]1)NC1CCCC1)c1ccc(Cl)c(F)c1` [Compound A-221], the IC50 in assay [1] was less than 10 µM. Also, the EC50 in assay [2] (Homo sapiens) is less than 10 µM.
As for `CC(N/C(=N/C(=O)c1ccc(Cl)cc1)Nc1cc(C(F)(F)F)[nH]n1)c1cccc(Cl)c1` (stereo not drawn) [Compound A-35], the IC50 in assay [1] was less than 10 µM. Besides, the EC50 in assay [2] (Homo sapiens) was less than 10 µM.
On to `O=C(/N=C(\Nc1cc(-c2cc(F)cc(F)c2)n[nH]1)NC1CCCC1)c1ccc(C(F)(F)F)cc1` [Compound A-291], for which the IC50 in assay [1] was less than 10 µM. For the same compound, in assay [2], the EC50 is less than 10 µM.
Consider `COC[C@H](C)N/C(=N/C(=O)c1ccc(Cl)cc1)Nc1cc(-c2ccc(F)cc2)n[nH]1` [Compound A-272], for which the IC50 in assay [1] was less than 10 µM. Further, the EC50 in assay [2] (Homo sapiens) was less than 10 µM.
In the case of `O=C(/N=C(/NCc1ccc(F)cc1Cl)Nc1cc(C(F)(F)F)[nH]n1)c1ccc(Cl)cc1` [Compound A-30], the IC50 in assay [1] was less than 10 µM. Besides, in assay [2] (Homo sapiens), the EC50 was less than 10 µM.
`O=C(/N=C(/Nc1cc(F)cc(Cl)c1)Nc1cc(-c2cccs2)[nH]n1)c1ccc(Cl)c(F)c1` [Compound A-144]: in assay [1], the IC50 is less than 10 µM. Also, the EC50 in assay [2] was less than 10 µM.
Take `CCOCCCN/C(=N/C(=O)c1cccc(F)c1)Nc1cc(-c2ccc(F)cc2)n[nH]1` [Compound A-279]: in assay [1], the IC50 is less than 10 µM. The EC50 in assay [2] was less than 10 µM.
Turning to `COc1cccc(C(=O)/N=C(/Nc2cc(F)cc(Cl)c2)Nc2cc(-c3ccc(Cl)cc3)[nH]n2)c1` [Compound A-168], the IC50 in assay [1] is less than 10 µM. In addition, in assay [2], the EC50 was less than 10 µM.
Turning to `Cc1cc(N/C(=N\C(=O)c2ccc(C(F)(F)F)cc2)NCC(C)(C)C)n[nH]1` [Compound A-155], the IC50 in assay [1] is less than 10 µM. Further, the EC50 in assay [2] was less than 10 µM.
Consider `CCC(C)N/C(=N/C(=O)c1cccc(OC)c1)Nc1cc(-c2ccc(F)cc2)n[nH]1` (stereo not drawn) [Compound A-172], for which the IC50 in assay [1] is less than 10 µM. For the same compound, the EC50 in assay [2] (Homo sapiens) was less than 10 µM.
In the case of `CCC(COC)N/C(=N/C(=O)c1ccc(F)c(F)c1)Nc1cc(-c2ccc(F)cc2)n[nH]1` (stereo not drawn) [Compound A-268], in assay [1], the IC50 is less than 10 µM. In addition, the EC50 in assay [2] is less than 10 µM.
For the compound `O=C(N=C(Nc1cc(-c2ccc(F)cc2)n[nH]1)NC1CCCC1)c1ccc(Cl)cc1` [Compound A-248], the IC50 in assay [1] is less than 10 µM. Besides, in assay [2] (Homo sapiens), the EC50 is less than 10 µM.
For the compound `O=C(/N=C(/NCC1CCO1)Nc1cc(-c2ccc(F)cc2)n[nH]1)c1ccc(F)cc1` (stereo not drawn) [Compound A-270], in assay [1], the IC50 is less than 10 µM. The EC50 in assay [2] is greater than 10 µM.
With `CCCC(C)NC(=NC(=O)c1ccc(Cl)c(F)c1)Nc1cc(-c2cc(F)cc(F)c2)n[nH]1` (stereo not drawn) [Compound A-348], the IC50 in assay [1] was less than 10 µM. Moreover, the EC50 in assay [2] (Homo sapiens) is less than 10 µM.
For the compound `Cc1cccc(C(=O)/N=C(/NCc2ccc(F)cc2Cl)Nc2cc(C(F)(F)F)[nH]n2)c1` [Compound A-551], the IC50 in assay [1] was less than 10 µM. Moreover, the half-maximal effective concentration (EC50) in assay [2] was less than 10 µM.
As for `Cc1ccc(-c2cc(N/C(=N\C(=O)c3ccc(C(F)(F)F)cc3)NC3CC3)[nH]n2)cc1F` [Compound A-195], the IC50 in assay [1] is less than 10 µM. For the same compound, the EC50 in assay [2] is less than 10 µM.
For the compound `Cc1cc(C(=O)/N=C(/NCc2ccc(F)cc2Cl)Nc2cc(C(F)(F)F)[nH]n2)ccn1` [Compound A-86], the IC50 in assay [1] was less than 10 µM. Besides, the EC50 in assay [2] (Homo sapiens) is greater than 10 µM.
The like results for `CC(C)(C)CN/C(=N/C(=O)c1cccc(C#N)c1)Nc1cc(C(F)(F)F)[nH]n1` [Compound A-72] were, in that order, less than 10 µM and less than 10 µM.
The like results for `COC[C@H](C)N/C(=N/C(=O)c1ccc(F)cc1)Nc1cc(-c2ccc(C)c(F)c2)n[nH]1` [Compound A-205] were, in that order, less than 10 µM and less than 10 µM.
In the same order, the values of `O=C(N=C(NCc1ccc(F)cc1Cl)Nc1cc(-c2ccc(F)cc2)n[nH]1)c1ccc(F)cc1` [Compound A-460] are less than 10 µM and less than 10 µM.
With `CCC(C)(C)N/C(=N/C(=O)c1cccc(C(F)(F)F)c1)Nc1cc(C(F)(F)F)[nH]n1` [Compound A-78], in assay [1], the IC50 is less than 10 µM. In assay [2] (Homo sapiens), the EC50 is less than 10 µM.
Turning to `CCOCCCN/C(=N/C(=O)c1ccc(F)c(F)c1)Nc1cc(-c2ccc(C)c(F)c2)n[nH]1` [Compound A-281], in assay [1], the IC50 is less than 10 µM. Further, the EC50 in assay [2] was less than 10 µM.
In the case of `COC[C@H](C)N/C(=N/C(=O)c1ccc(F)cc1F)Nc1cc(-c2ccc(F)cc2)n[nH]1` [Compound A-488], the IC50 in assay [1] was less than 10 µM. In assay [2], the EC50 was less than 10 µM.
For the compound `CC(N/C(=N/C(=O)c1ccc(Cl)cc1)Nc1cc(C(F)(F)F)[nH]n1)c1ccccc1Cl` (stereo not drawn) [Compound A-34], the concentration for half-maximal inhibition (IC50) in assay [1] was less than 10 µM. Further, the EC50 in assay [2] (Homo sapiens) was less than 10 µM.
On to `CCC(C)N/C(=N/C(=O)c1ccc(F)cc1)Nc1cc(-c2ccc(C)c(F)c2)n[nH]1` (stereo not drawn) [Compound A-203], for which the IC50 in assay [1] is less than 10 µM. In addition, the EC50 in assay [2] (Homo sapiens) was less than 10 µM.
For the compound `CC(C)(C)N/C(=N/C(=O)c1ccc(C#N)cc1)Nc1cc(C(F)(F)F)[nH]n1` [Compound A-71], the IC50 in assay [1] is less than 10 µM. Moreover, the EC50 in assay [2] (Homo sapiens) is less than 10 µM.
Turning to `CCc1cc(C(=O)N=C(NCC(C)C)Nc2cc(-c3ccc(F)cc3)n[nH]2)ccn1` [Compound A-176], the IC50 in assay [1] is less than 10 µM. Also, the EC50 in assay [2] (Homo sapiens) is less than 10 µM.
As to `COc1ccc(-c2cc(N/C(=N\C(=O)c3ccc(C(F)(F)F)cc3)NCC(C)C)[nH]n2)cc1F` [Compound A-571], the half-maximal inhibitory concentration (IC50) in assay [1] is less than 10 µM. The EC50 in assay [2] is less than 10 µM.
With `O=C(N=C(Nc1cc(F)cc(Cl)c1)Nc1cc(-c2cccc(Cl)c2)[nH]n1)c1ccc(Cl)c(F)c1` [Compound A-475], the IC50 in assay [1] was less than 10 µM. In addition, in assay [2] (Homo sapiens), the EC50 is greater than 10 µM.
